Assay results taken from patent US20240309003A1, “HETEROCYCLIC COMPOUNDS AS TRIGGERING RECEPTOR EXPRESSED ON MYELOID CELLS 2 AGONISTS AND METHODS OF USE” (Vigil Neuroscience, Inc., priority 2021, published 2024).

Target: T1, human TREM2 (Homo sapiens, UniProt Q9NZC2)
T1 construct: expressed in transfected cells; host or cells: HEK293T
Assay: TREM2 agonist potency by cellular phosphorylation of Syk (AlphaLisa) in HEK293T-hTREM2 cells
Assay type: cell-based
Conditions: HEK293 cells expressing human TREM2 and DAP12, Table D
Protocol: In Vitro Measurement of Triggering Receptor Expressed on Myeloid Cells 2 Activity Using Cellular Phosphorylation of Spleen Tyrosine Kinase (“Syk”) Assays
Measurement of TREM2 agonist potency was done using a HEK cell line expressing human TREM2 and DAP12 (HEK293T-hTREM2 cells). Binding of small molecules to, and activation of, TREM2 increases the phosphorylation of Syk. The resultant levels of Syk phosphorylation are measured using a commercial AlphaLisa reagent kit. To perform the assay, HEK-hTREM2 cells were plated at 14,000 cells per well in a 384 well plate, in 25 μL of complete growth media and incubated at 37° C., 5% CO2 for 20-24 hours.
Prior to the assay, test compounds were diluted in the 384 well plates in assay buffer and allowed to equilibrate for 30 minutes. Growth media was removed from cell plates by inversion on blotting paper, and 25 μL of test articles in assay buffer was added to cells. Cells were incubated for 45 minutes at room temperature. After 45 minutes, assay buffer was removed and 10 μL of lysis buffer was added. Plates were shaken for 20 minutes at 350 RPM at room temperature. After complete lysis, AlphaLisa reagents were added to the lysate, and fluourescence intensity was measured using a Perkin Elmer Envision plate reader. Intensities were used to generate a standard curve, and % activation was calculated. Curve fitting was performed using Prism v9 software, log(agonist) vs response-variable slope (four parameters), and EC50s were calculated from the curve fit.
This assay may be used to test any of the compounds described herein to assess and characterize a compound's ability to act as an agonist of TREM2.

T1 sequence (Q9NZC2 19-230): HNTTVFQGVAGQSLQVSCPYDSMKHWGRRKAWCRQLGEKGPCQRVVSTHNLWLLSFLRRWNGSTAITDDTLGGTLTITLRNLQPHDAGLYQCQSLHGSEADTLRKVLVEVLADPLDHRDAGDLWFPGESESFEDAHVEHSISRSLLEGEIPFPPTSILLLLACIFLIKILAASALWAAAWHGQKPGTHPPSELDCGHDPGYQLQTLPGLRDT
T1 sequence (O43914 22-113 partner): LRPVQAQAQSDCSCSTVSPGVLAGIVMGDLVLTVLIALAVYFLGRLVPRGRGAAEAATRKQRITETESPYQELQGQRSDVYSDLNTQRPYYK

| EC50 [µM] | SMILES |
| --- | --- |
| < 0.05 | Cc1nc2nc([C@@H]3CCO[C@H](c4cnn(C5CC(F)C5)c4)C3)nc(C34CC(C(F)(F)F)(C3)C4)c2nc1C (stereo in doubt) [Example 134, 2-((2S,4R)-2-(1-(3-fluorocyclobutyl)-1H-pyrazol-4-yl)tetrahydro-2H-pyran-4-yl)-6,7-dimethyl-4-(3-(trifluoromethyl)bicyclo[1.1.1]pentan-1-yl)pteridine] |
| 0.05 to 0.5 | Cc1nc2nc([C@H]3CCO[C@@H](c4cnn(C5CC(F)C5)c4)C3)nc(C34CC(C(F)(F)F)(C3)C4)c2nc1C (stereo in doubt) [Example 135, 2-((2R,4S)-2-(1-(3-fluorocyclobutyl)-1H-pyrazol-4-yl)tetrahydro-2H-pyran-4-yl)-6,7-dimethyl-4-(3-(trifluoromethyl)bicyclo[1.1.1]pentan-1-yl)pteridine] |
| 0.05 to 0.5 | Cc1cnc2c(-c3ccc(F)cc3F)nc(N3C[C@@H](c4cnn(C5CC5)c4)O[C@@H](C)C3)nc2n1 [Example 114, (2R,6S)-2-(1-cyclopropyl-1H-pyrazol-4-yl)-4-(4-(2,4-difluorophenyl)-7-methylpteridin-2-yl)-6-methylmorpholine] |
| < 0.05 | Cc1cnc2c(-c3ccc(Cl)cc3F)nc(N3C[C@@H](C)O[C@@H](c4cnn(C5CC5)c4)C3)nc2n1 [Example 117, (2S,6R)-4-(4-(4-chloro-2-fluorophenyl)-7-methylpteridin-2-yl)-2-(1-cyclopropyl-1H-pyrazol-4-yl)-6-methylmorpholine] |
| < 0.05 | Cc1cnc2c(C34CC(C(F)(F)F)(C3)C4)nc(N3C[C@@H](c4cnn(C5CC5)c4)O[C@@H](C)C3)nc2n1 [Example 125, (2R,6S)-2-(1-cyclopropyl-1H-pyrazol-4-yl)-6-methyl-4-(7-methyl-4-(3-(trifluoromethyl)bicyclo[1.1.1]pentan-1-yl)pteridin-2-yl)morpholine] |
| < 0.05 | Cc1cnc2c(C34CC(C(F)(F)F)(C3)C4)nc(N3C[C@@H](C)O[C@@H](c4cnn(C5CC5)c4)C3)nc2n1 [Example 126, (2S,6R)-2-(1-cyclopropyl-1H-pyrazol-4-yl)-6-methyl-4-(7-methyl-4-(3-(trifluoromethyl)bicyclo[1.1.1]pentan-1-yl)pteridin-2-yl)morpholine] |
| < 0.05 | Cc1nc2nc([C@H]3CCO[C@@H](c4cnn(C5CC5)c4)C3)nc(C34CC(C(C)C)(C3)C4)c2nc1C [Example 127, 2-((2R,4S)-2-(1-cyclopropyl-1H-pyrazol-4-yl)tetrahydro-2H-pyran-4-yl)-4-(3-isopropylbicyclo[1.1.1]pentan-1-yl)-6,7-dimethylpteridine] |
| < 0.05 | Cc1cnc2c(-c3ccc(Cl)cc3F)nc([C@H]3C[C@@H](c4cnn(C5CC5)c4)O[C@@H](C)C3)nc2n1 [Example 128, 4-(4-chloro-2-fluorophenyl)-2-((2S,4R,6S)-2-(1-cyclopropyl-1H-pyrazol-4-yl)-6-methyltetrahydro-2H-pyran-4-yl)-7-methylpteridine] |
| 0.05 to 0.5 | Cc1cnc2c(-c3ccc(Cl)cc3F)nc([C@H]3C[C@@H](C)O[C@@H](c4cnn(C5CC5)c4)C3)nc2n1 [Example 129, 4-(4-chloro-2-fluorophenyl)-2-((2R,4S,6R)-2-(1-cyclopropyl-1H-pyrazol-4-yl)-6-methyltetrahydro-2H-pyran-4-yl)-7-methylpteridine] |
| < 0.05 | Cc1cc([C@H]2C[C@@H](c3nc(-c4ccc(Cl)c(F)c4F)c4ncc(C)nc4n3)CCO2)ccn1 [Example 130, 4-(4-chloro-2,3-difluorophenyl)-7-methyl-2-((2R,4S)-2-(2-methylpyridin-4-yl)tetrahydro-2H-pyran-4-yl)pteridine] |
| 0.5 to 3 | Cc1cc([C@@H]2C[C@H](c3nc(-c4ccc(Cl)c(F)c4F)c4ncc(C)nc4n3)CCO2)ccn1 [Example 131, 4-(4-chloro-2,3-difluorophenyl)-7-methyl-2-((2S,4R)-2-(2-methylpyridin-4-yl)tetrahydro-2H-pyran-4-yl)pteridine] |
| 3 to 100 | Cc1cc([C@@H]2C[C@H](c3nc(-c4cc(F)c(Cl)c(F)c4)c4nc(C)c(C)nc4n3)CCO2)ccn1 [Example 132, 4-(4-chloro-3,5-difluorophenyl)-6,7-dimethyl-2-((2S,4R)-2-(2-methylpyridin-4-yl)tetrahydro-2H-pyran-4-yl)pteridine] |

Same assay, conditions: HEK293 cells expressing human TREM2 and DAP12, Table D-2

| EC50 [µM] | SMILES |
| --- | --- |
| 0.5 to 3 | Cc1nc2nc([C@@H]3CCO[C@@H](c4cnc(C5CC5)o4)C3)nc(-c3ccc(F)cc3F)c2nc1C (single isomer, unassigned) [Example I-1696] |
| 0.5 to 3 | Cc1nc2nc(N3CCCO[C@H](c4cnn(C5CC5)c4)C3)nc(-c3ccc(F)cc3F)c2nc1C (stereo in doubt) [Example I-1144, 2-(1-cyclopropyl-1H-pyrazol-4-yl)-4-(4-(2,4-difluorophenyl)-6,7-dimethylpteridin-2-yl)-1,4-oxazepane] |
| < 0.05 | Cc1nc2nc([C@H]3CCO[C@@H](c4cnn(C5CC5)c4)C3)nc(-c3ccc4c(c3)CCC4)c2nc1C (stereo in doubt) [Example I-1170, 4-indan-5-yl-6,7-dimethyl-2-[(2R,4S)-2-(1-cyclopropylpyrazol-4-yl)tetrahydropyran-4-yl]pteridine] |
| < 0.05 | Cc1cc([C@@H]2CN(c3nc(-c4ccc(Cl)cc4F)c4nc(C)c(C)nc4n3)CCO2)on1 (stereo in doubt) [Example I-1241, 4-[4-(4-chloro-2-fluoro-phenyl)-6,7-dimethyl-pteridin-2-yl]-2-(3-methylisoxazol-5-yl)morpholine] |
| < 0.05 | Cc1nc2nc([C@H]3CCO[C@@H](c4cnn(C5CC5)c4)C3)nc(-c3c(F)cc(C(F)(F)F)cc3F)c2nc1C (stereo in doubt) [Example I-1391, 4-[2,6-difluoro-4-(trifluoromethyl)phenyl]-6,7-dimethyl-2-[(2R,4S)-2-(1-cyclopropylpyrazol-4-yl)tetrahydropyran-4-yl]pteridine] |
| 0.05 to 0.5 | Cc1nc2nc(N3CCOC(c4cnn5c4CCC5)C3)nc(-c3ccc(F)cc3F)c2nc1C (stereo in doubt) [Example I-1532, (2S)-4-[4-(2,4-difluorophenyl)-6,7-dimethyl-pteridin-2-yl]-2-(5,6-dihydro-4H-pyrrolo[1,2-b]pyrazol-3-yl)morpholine] |
| < 0.05 | Cc1nc2nc([C@H]3CCO[C@@H](c4cnn(C5CC5)c4)C3)nc(-c3ccc(C(F)(F)F)c(F)c3F)c2nc1C (stereo in doubt) [Example I-1588, 4-[2,3-difluoro-4-(trifluoromethyl)phenyl]-6,7-dimethyl-2-[(2R,4S)-2-(1-cyclopropylpyrazol-4-yl)tetrahydropyran-4-yl]pteridine] |
| < 0.05 | Cc1nc2nc(N3C[C@@H](C(F)F)O[C@@H](c4cnn(C5CC5)c4)C3)nc(-c3ccc(C(F)(F)F)cc3F)c2nc1C (stereo in doubt) [Example I-1598, (2S,6S)-2-(1-cyclopropylpyrazol-4-yl)-6-(difluoromethyl)-4-[4-[2-fluoro-4-(trifluoromethyl)phenyl]-6,7-dimethyl-pteridin-2-yl]morpholine] |
| 0.5 to 3 | Cc1nc2nc([C@H]3CC(CO)O[C@@H](c4cnn(C5CC5)c4)C3)nc(-c3ccc(F)cc3F)c2nc1C (stereo in doubt) [Example I-1624, [(2S,4R,6R)-6-(1-cyclopropylpyrazol-4-yl)-4-[4-(2,4-difluorophenyl)-6,7-dimethyl-pteridin-2-yl]tetrahydropyran-2-yl]methanol] |
| 0.05 to 0.5 | COCCn1cc([C@H]2C[C@@H](c3nc(-c4ccc(F)cc4F)c4nc(C)c(C)nc4n3)CCO2)cn1 (stereo in doubt) [Example I-1658, 4-(2,4-difluorophenyl)-2-(2-(1-(2-methoxyethyl)-1H-pyrazol-4-yl)tetrahydro-2H-pyran-4-yl)-6,7-dimethylpteridine] |
| < 0.05 | COc1nc2c(-c3ccc(C(F)(F)F)cc3F)nc([C@H]3CCO[C@@H](c4cnn(C5CC5)c4)C3)nc2nc1C (stereo in doubt) [Example I-1691, 2-((2R,4S)-2-(1-cyclopropyl-1H-pyrazol-4-yl)tetrahydro-2H-pyran-4-yl)-4-(2-fluoro-4-(trifluoromethyl)phenyl)-6-methoxy-7-methylpteridine] |
| < 0.05 | Cc1nc2nc(N3C[C@@H](c4cnn(C(F)F)c4)O[C@@H](C4CC4)C3)nc(-c3ccc(F)cc3F)c2nc1C (stereo in doubt) [Example I-1701, (2S,6R)-2-cyclopropyl-6-[1-(difluoromethyl)pyrazol-4-yl]-4-[4-(2,4-difluorophenyl)-6,7-dimethyl-pteridin-2-yl]morpholine] |
| 0.05 to 0.5 | Cc1nc2nc(N3C[C@@H](C4CC4)O[C@@H](c4cnn(C(F)F)c4)C3)nc(-c3ccc(F)cc3F)c2nc1C (stereo in doubt) [Example I-1702, (2R,6S)-2-cyclopropyl-6-[1-(difluoromethyl)pyrazol-4-yl]-4-[4-(2,4-difluorophenyl)-6,7-dimethyl-pteridin-2-yl]morpholine] |
| < 0.05 | Cc1nc2nc(N3C[C@@H](C)O[C@@H](c4cnn(C5CC5)c4)C3)nc(-c3cc(C(F)F)c(F)cc3F)c2nc1C (stereo in doubt) [Example I-1706, (2S,6R)-2-(1-cyclopropylpyrazol-4-yl)-4-[4-[5-(difluoromethyl)-2,4-difluoro-phenyl]-6,7-dimethyl-pteridin-2-yl]-6-methyl-morpholine] |
